Laboratory results published in patent US11629171B2, “Beta-hairpin peptidomimetics” (POLYPHOR AG, priority 2017, dated 2023).
Converted amounts (≈) assume the structure as drawn. Where a SMILES comes first, the peptide text is derived from it. Bridges are numbered along the chain shown (N, C = ends). Roman numbers before positions name the chains, in order. [ ]: non-standard residue; d: D form. The star is where a group is joined. dThr(ol) = C[C@H](O)[C@@H](N)CO; Thr(ol) = C[C@@H](O)[C@H](N)CO; Tle = CC(C)(C)[C@H](N)C(=O)O; dDab = NCC[C@@H](N)C(=O)O; hCys = N[C@@H](CCS)C(=O)O; Dab = NCC[C@H](N)C(=O)O; Dap = NC[C@H](N)C(=O)O; OiPr = CC(C)O*

How the values were obtained:
Format in all cases: cell-based
[1] = system: human red blood cells (hRBC); assay: Hemolysis; conditions: red cells of human, 1 h, 200
In short: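 Read-out is supernatant absorbance at 540 nm, normalised to full lysis by 2% Triton X-100 and zero lysis by PBS with 10% water. Peptides (200 μg/mL) were exposed to 20% v/v washed human erythrocytes at 37° C for 1 h under shaking.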

[2] = system: Acinetobacter baumannii 872842; conditions: 872842
In short: (§1)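 Cation-adjusted MH-II broth, 0.002% polysorbate 80, inoculum near 10^6 CFU/mL. MIC read visually after 18-20 h, 35° C; units μg/mL.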

[3] = system: Klebsiella pneumoniae SSI #3010; conditions: SSI #3010
In short: as §1

[4] = system: Klebsiella pneumoniae 968733; conditions: 968733
In short: as §1

[5] = system: Acinetobacter baumannii DSM 30008; conditions: DSM 30008
In short: as §1

[6] = system: Enterobacter cloacae 848840; conditions: 848840
In short: as §1

Escherichia coli 926415 = conditions: 926415
In short: as §1

[7] = system: Pseudomonas aeruginosa ATCC 27853; conditions: ATCC 27853
In short: as §1

[8] = system: Escherichia coli ATCC 25922; conditions: ATCC 25922
In short: as §1

| SMILES | Hemolysis at 200 μg/mL [1] [%] | MIC [2] [mg/L] | MIC [3] [mg/L] | MIC [4] [mg/L] | MIC [5] [mg/L] | MIC [6] [mg/L] | MIC (Escherichia coli 926415) [mg/L] | MIC [7] [mg/L] | MIC [8] [mg/L] |
| --- | --- | --- | --- | --- | --- | --- | --- | --- | --- |
| CC(=O)N[C@H](C(=O)N[C@H]1CSSC[C@@H](C(=O)N[C@@H](CO)C(N)=O)NC(=O)[C@H](C(C)(C)C)NC(=O)[C@H](CO)NC(=O)[C@H](Cc2c[nH]c3ccccc23)NC(=O)[C@H](CCN)NC(=O)[C@@H](CCN)NC(=O)[C@H](CCC(=O)N[C@@H](CCN)C(=O)N[C@H](C(=O)N[C@@H](CN)C(=O)N[C@H]2CCNC(=O)[C@H]([C@@H](C)O)NC(=O)[C@H](CCN)NC(=O)[C@H](CCN)NC(=O)[C@H](CC(C)C)NC(=O)[C@@H](CC(C)C)NC(=O)[C@H](CCN)NC2=O)[C@@H](C)O)NC(=O)[C@H](CN)NC(=O)[C@H](Cc2ccc(O)cc2)NC1=O)C(C)C [Ex. 120] (I: Ac-VCY[Dap]E[dDab][Dab]WS[Tle]CS-NH2 / II: [Dab]T[Dap][Dab][Dab][dL]L[Dab][Dab]T; disulfide I:2-I:11; amide I:5-II:N; lactam II:4-II:C) | 1 | 0.0625 (≈ 0.0259 µM) | 0.0625 (≈ 0.0259 µM) | 0.125 (≈ 0.0518 µM) | 0.0625 (≈ 0.0259 µM) | 0.25 (≈ 0.104 µM) | 0.0625 (≈ 0.0259 µM) | 0.125 (≈ 0.0518 µM) | 0.125 (≈ 0.0518 µM) |
| CC(=O)N[C@H](C(=O)N[C@H]1CCSSC[C@@H](C(=O)N[C@@H](CO)C(N)=O)NC(=O)[C@H](C(C)(C)C)NC(=O)[C@H](CO)NC(=O)[C@H](Cc2c[nH]c3ccccc23)NC(=O)[C@H](CO)NC(=O)[C@@H](CCN)NC(=O)[C@H](CCC(=O)N[C@@H](CCN)C(=O)N[C@H](C(=O)N[C@@H](CN)C(=O)N[C@H]2CCNC(=O)[C@H]([C@@H](C)O)NC(=O)[C@H](CCN)NC(=O)[C@H](CCN)NC(=O)[C@H](CC(C)C)NC(=O)[C@@H](CC(C)C)NC(=O)[C@H](CCN)NC2=O)[C@@H](C)O)NC(=O)[C@H](CN)NC(=O)[C@H](Cc2ccc(O)cc2)NC1=O)C(C)C [Ex. 121] (I: Ac-V[hCys]Y[Dap]E[dDab]SWS[Tle]CS-NH2 / II: [Dab]T[Dap][Dab][Dab][dL]L[Dab][Dab]T; disulfide I:2-I:11; amide I:5-II:N; lactam II:4-II:C) | <1 | 0.0625 (≈ 0.0259 µM) | 0.125 (≈ 0.0518 µM) | 0.25 (≈ 0.104 µM) | 0.0625 (≈ 0.0259 µM) | 0.125 (≈ 0.0518 µM) | 0.125 (≈ 0.0518 µM) | 0.125 (≈ 0.0518 µM) | 0.0625 (≈ 0.0259 µM) |
| CC(=O)N[C@H](C(=O)N[C@H]1CSSC[C@@H](C(=O)N[C@@H](CO)C(=O)OC(C)C)NC(=O)[C@H](C(C)(C)C)NC(=O)[C@H](CO)NC(=O)[C@H](Cc2c[nH]c3ccccc23)NC(=O)[C@H](CO)NC(=O)[C@@H](CCN)NC(=O)[C@H](CCC(=O)N[C@@H](CCN)C(=O)N[C@H](C(=O)N[C@@H](CN)C(=O)N[C@H]2CCNC(=O)[C@H]([C@@H](C)O)NC(=O)[C@H](CCN)NC(=O)[C@H](CCN)NC(=O)[C@H](CC(C)C)NC(=O)[C@@H](CC(C)C)NC(=O)[C@H](CCN)NC2=O)[C@@H](C)O)NC(=O)[C@H](CN)NC(=O)[C@H](Cc2ccc(O)cc2)NC1=O)C(C)C [Ex. 122] (I: Ac-VCY[Dap]E[dDab]SWS[Tle]CS-OiPr / II: [Dab]T[Dap][Dab][Dab][dL]L[Dab][Dab]T; disulfide I:2-I:11; amide I:5-II:N; lactam II:4-II:C) | 1 | 1 (≈ 0.41 µM) | 0.5 (≈ 0.205 µM) | 2 (≈ 0.819 µM) | 0.25 (≈ 0.102 µM) | 2 (≈ 0.819 µM) | 4 (≈ 1.64 µM) | 0.5 (≈ 0.205 µM) | 0.25 (≈ 0.102 µM) |
| CC(=O)N[C@H](C(=O)N[C@H]1CSSC[C@@H](C(=O)N[C@H](CO)[C@@H](C)O)NC(=O)[C@H](C(C)(C)C)NC(=O)[C@H](CO)NC(=O)[C@H](Cc2c[nH]c3ccccc23)NC(=O)[C@H](CO)NC(=O)[C@@H](CCN)NC(=O)[C@H](CCC(=O)N[C@@H](CCN)C(=O)N[C@H](C(=O)N[C@@H](CN)C(=O)N[C@H]2CCNC(=O)[C@H]([C@@H](C)O)NC(=O)[C@H](CCN)NC(=O)[C@H](CCN)NC(=O)[C@H](CC(C)C)NC(=O)[C@@H](CC(C)C)NC(=O)[C@H](CCN)NC2=O)[C@@H](C)O)NC(=O)[C@H](CN)NC(=O)[C@H](Cc2ccc(O)cc2)NC1=O)C(C)C [Ex. 123] (I: Ac-VCY[Dap]E[dDab]SWS[Tle]C[Thr(ol)] / II: [Dab]T[Dap][Dab][Dab][dL]L[Dab][Dab]T; disulfide I:2-I:11; amide I:5-II:N; lactam II:4-II:C) | <1 | 0.03125 (≈ 0.013 µM) | 0.0625 (≈ 0.026 µM) | 0.0625 (≈ 0.026 µM) | 0.01562 (≈ 0.00651 µM) | 0.0625 (≈ 0.026 µM) | 0.03125 (≈ 0.013 µM) | 0.0625 (≈ 0.026 µM) | 0.01562 (≈ 0.00651 µM) |
| CC(=O)N[C@H](C(=O)N[C@H]1CSSC[C@@H](C(=O)N[C@@H](CO)[C@H](C)O)NC(=O)[C@H](C(C)(C)C)NC(=O)[C@H](CO)NC(=O)[C@H](Cc2c[nH]c3ccccc23)NC(=O)[C@H](CO)NC(=O)[C@@H](CCN)NC(=O)[C@H](CCC(=O)N[C@@H](CCN)C(=O)N[C@H](C(=O)N[C@@H](CN)C(=O)N[C@H]2CCNC(=O)[C@H]([C@@H](C)O)NC(=O)[C@H](CCN)NC(=O)[C@H](CCN)NC(=O)[C@H](CC(C)C)NC(=O)[C@@H](CC(C)C)NC(=O)[C@H](CCN)NC2=O)[C@@H](C)O)NC(=O)[C@H](CN)NC(=O)[C@H](Cc2ccc(O)cc2)NC1=O)C(C)C [Ex. 124] (I: Ac-VCY[Dap]E[dDab]SWS[Tle]C[dThr(ol)] / II: [Dab]T[Dap][Dab][Dab][dL]L[Dab][Dab]T; disulfide I:2-I:11; amide I:5-II:N; lactam II:4-II:C) | 2 | 0.0625 (≈ 0.026 µM) | 0.125 (≈ 0.0521 µM) | 0.25 (≈ 0.104 µM) | 0.0625 (≈ 0.026 µM) | 0.125 (≈ 0.0521 µM) | 0.25 (≈ 0.104 µM) | 0.125 (≈ 0.0521 µM) | 0.0625 (≈ 0.026 µM) |
| CC(=O)N[C@@H](CCN)C(=O)N[C@H](C(=O)N[C@H]1CSSC[C@@H](C(N)=O)NC(=O)[C@H](C(C)(C)C)NC(=O)[C@H](CO)NC(=O)[C@H](Cc2c[nH]c3ccccc23)NC(=O)[C@H](CO)NC(=O)[C@@H](CCN)NC(=O)[C@H](CCC(=O)N[C@@H](CCN)C(=O)N[C@H](C(=O)N[C@@H](CN)C(=O)N[C@H]2CCNC(=O)[C@H]([C@@H](C)O)NC(=O)[C@H](CCN)NC(=O)[C@H](CCN)NC(=O)[C@H](CC(C)C)NC(=O)[C@@H](CC(C)C)NC(=O)[C@H](CCN)NC2=O)[C@@H](C)O)NC(=O)[C@H](CN)NC(=O)[C@H](Cc2ccc(O)cc2)NC1=O)C(C)C [Ex. 125] (I: Ac-[Dab]VCY[Dap]E[dDab]SWS[Tle]C-NH2 / II: [Dab]T[Dap][Dab][Dab][dL]L[Dab][Dab]T; disulfide I:3-I:12; amide I:6-II:N; lactam II:4-II:C) | 2 | 0.125 (≈ 0.0518 µM) | 0.0625 (≈ 0.0259 µM) | 0.125 (≈ 0.0518 µM) | 0.125 (≈ 0.0518 µM) | 0.125 (≈ 0.0518 µM) | 0.0625 (≈ 0.0259 µM) | 0.125 (≈ 0.0518 µM) | 0.0625 (≈ 0.0259 µM) |
| CC(=O)N[C@@H](CCN)C(=O)N[C@H](C(=O)N[C@H]1CSSC[C@@H](C(N)=O)NC(=O)[C@H](C(C)(C)C)NC(=O)[C@H](CO)NC(=O)[C@H](Cc2c[nH]c3ccccc23)NC(=O)[C@H](CCN)NC(=O)[C@@H](CCN)NC(=O)[C@H](CCC(=O)N[C@@H](CCN)C(=O)N[C@H](C(=O)N[C@@H](CN)C(=O)N[C@H]2CCNC(=O)[C@H]([C@@H](C)O)NC(=O)[C@H](CCN)NC(=O)[C@H](CCN)NC(=O)[C@H](CC(C)C)NC(=O)[C@@H](CC(C)C)NC(=O)[C@H](CCN)NC2=O)[C@@H](C)O)NC(=O)[C@H](CN)NC(=O)[C@H](Cc2ccc(O)cc2)NC1=O)C(C)C [Ex. 126] (I: Ac-[Dab]VCY[Dap]E[dDab][Dab]WS[Tle]C-NH2 / II: [Dab]T[Dap][Dab][Dab][dL]L[Dab][Dab]T; disulfide I:3-I:12; amide I:6-II:N; lactam II:4-II:C) | <1 | 0.25 (≈ 0.103 µM) | 0.125 (≈ 0.0515 µM) | 0.25 (≈ 0.103 µM) | 0.125 (≈ 0.0515 µM) | 0.5 (≈ 0.206 µM) | 0.125 (≈ 0.0515 µM) | 0.25 (≈ 0.103 µM) | 0.125 (≈ 0.0515 µM) |
